Consider ten molecules from ChEMBL document CHEMBL4257479, “Design, synthesis and evaluation of indole derivatives as multifunctional agents against Alzheimer's disease” (Medchemcomm, 2018).

By pIC50 is commonly meant −log10 of the IC50, conventionally taken in molar units. Usually CC50 stands for the concentration that lowers cell viability or growth by half.

pIC50: −log10 of the molar value. Activity calls are given as the source filed them. The calls are words filed in the database; no cut-off is given here. Some results are limits rather than exact numbers.

In series [1] the target is T1, Amine oxidase [flavin-containing] B (Homo sapiens, UniProt P27338).
T1 sequence (P27338 whole entry): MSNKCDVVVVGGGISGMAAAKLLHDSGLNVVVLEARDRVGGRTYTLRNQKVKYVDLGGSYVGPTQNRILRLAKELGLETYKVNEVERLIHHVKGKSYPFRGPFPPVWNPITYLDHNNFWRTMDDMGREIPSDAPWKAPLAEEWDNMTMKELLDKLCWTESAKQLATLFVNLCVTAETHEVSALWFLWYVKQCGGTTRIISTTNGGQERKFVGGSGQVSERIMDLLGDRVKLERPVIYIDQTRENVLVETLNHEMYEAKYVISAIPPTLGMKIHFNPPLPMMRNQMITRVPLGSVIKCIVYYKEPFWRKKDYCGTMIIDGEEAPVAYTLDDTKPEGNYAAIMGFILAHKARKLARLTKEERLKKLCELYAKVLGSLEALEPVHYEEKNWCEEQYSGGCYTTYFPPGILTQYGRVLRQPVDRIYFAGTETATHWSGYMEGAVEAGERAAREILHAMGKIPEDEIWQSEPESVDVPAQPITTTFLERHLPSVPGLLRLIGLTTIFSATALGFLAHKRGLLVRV
Description: Inhibition of human recombinant MAOB using kynuramine as substrate preincubated for 10 mins followed by substrate addition at 10 secs intervals measured after 20 mins by fluorescence assay

The next series has as its target Acetylcholinesterase (Electrophorus electricus, UniProt O42275). The series can be described thus: Inhibition of electric eel AChE using acetylthiocholine iodide as substrate preincubated for 10 mins followed by substrate addition and measured after 10 mins by Ellman's method.
For a further series, the target named is Cholinesterase (Equus caballus, UniProt P81908). In words: Inhibition of equine serum BuChE using S-butyrylthiocholine iodide as substrate pretreated for 10 mins followed by substrate addition and measured after 10 mins by Ellman's method.
Chain of Cholinesterase (P81908 whole entry): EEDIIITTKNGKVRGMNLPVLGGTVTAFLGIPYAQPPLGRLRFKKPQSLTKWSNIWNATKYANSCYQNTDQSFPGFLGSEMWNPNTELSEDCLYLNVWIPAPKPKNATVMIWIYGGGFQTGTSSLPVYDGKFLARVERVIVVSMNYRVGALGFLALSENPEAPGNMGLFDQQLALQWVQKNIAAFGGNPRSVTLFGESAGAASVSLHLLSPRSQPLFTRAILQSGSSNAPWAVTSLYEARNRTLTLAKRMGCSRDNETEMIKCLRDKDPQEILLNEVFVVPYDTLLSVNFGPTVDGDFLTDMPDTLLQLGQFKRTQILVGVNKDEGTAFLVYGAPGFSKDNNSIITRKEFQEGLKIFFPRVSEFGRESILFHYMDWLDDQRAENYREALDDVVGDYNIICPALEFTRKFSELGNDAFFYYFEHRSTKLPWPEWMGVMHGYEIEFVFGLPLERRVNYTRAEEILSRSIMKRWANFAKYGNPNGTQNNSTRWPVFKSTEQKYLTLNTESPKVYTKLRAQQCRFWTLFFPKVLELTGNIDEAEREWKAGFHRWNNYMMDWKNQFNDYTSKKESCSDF
The target in series [2] is T2, Amine oxidase [flavin-containing] A (Homo sapiens, UniProt P21397).
T2 sequence (P21397 whole entry): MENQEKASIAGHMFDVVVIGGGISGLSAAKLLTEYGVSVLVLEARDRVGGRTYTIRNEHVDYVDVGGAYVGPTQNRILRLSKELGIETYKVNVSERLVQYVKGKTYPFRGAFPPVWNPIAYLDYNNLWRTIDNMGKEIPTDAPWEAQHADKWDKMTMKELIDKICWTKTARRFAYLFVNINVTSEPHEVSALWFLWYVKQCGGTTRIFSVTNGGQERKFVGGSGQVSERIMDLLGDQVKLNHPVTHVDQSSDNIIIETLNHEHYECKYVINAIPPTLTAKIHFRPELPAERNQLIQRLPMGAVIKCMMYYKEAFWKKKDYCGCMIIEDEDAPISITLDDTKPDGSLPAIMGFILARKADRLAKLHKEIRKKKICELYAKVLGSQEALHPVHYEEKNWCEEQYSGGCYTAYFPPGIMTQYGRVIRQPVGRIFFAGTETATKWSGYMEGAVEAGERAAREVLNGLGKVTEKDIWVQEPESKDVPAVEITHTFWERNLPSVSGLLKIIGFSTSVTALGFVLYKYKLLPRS
The series can be described thus: Inhibition of human recombinant MAOA using kynuramine as substrate preincubated for 10 mins followed by substrate addition at 10 secs intervals measured after 20 mins by fluorescence assay.

Series [3] addresses T2, Amine oxidase [flavin-containing] A. In words: Irreversible time dependent inhibition of human recombinant MAOA at 2 times IC50 using kynuramine as substrate preincubated up to 60 mins followed by 45 uM substrate addition by fluorescence assay. The following applies: TDE = time-dependent effect.
A further series is filed under the species Homo sapiens. In words: Selectivity index, ratio of IC50 for human recombinant MAOA to IC50 for human recombinant MAOB.
A short description of series [4]: Stability in 0.1 M HCl assessed as compound degradation at 1 mg/ml up to 7 days by UV/vis absorbance assay. The class given is physicochemical. The following applies: buffer, 168 h.
Series [5] can be described thus: Stability in 0.1 M NaOH assessed as compound degradation at 1 mg/ml up to 7 days by UV/vis absorbance assay. The format is physicochemical. To be noted: 168 h.
The test system of series [6] is SH-SY5Y. In words: Cytoprotection against MPP+ induced cell death in human SH-SY5Y cells assessed as cell survival at 1 uM preincubated for 2 hrs followed by MPP+ addition and measured after 48 hrs by MTT assay (reference value: 52.78 +/- 7.35%). The following applies: read-out: Activity. The format is functional.
For series [7], the system named is SH-SY5Y. The series can be described thus: Cytoprotection against MPP+ induced cell death in human SH-SY5Y cells assessed as cell survival at 5 to 10 uM preincubated for 2 hrs followed by MPP+ addition and measured after 48 hrs by MTT assay (reference value: 52.78 +/- 7.35%). The format is functional, cell-based. A general note: Formazan colour is commonly taken as a measure of viable cells.

Series [8] in a line: (§1) Cytotoxicity against human SH-SY5Y cells assessed as reduction in cell viability after 48 hrs by MTT assay. The class given is cell-based. The following applies: SH-SY5Y cells.
In series [9] the test system is SH-SY5Y. The description is as §1. The format is cell-based. The following applies: sh-sy5y, 48 h.

Chain of Acetylcholinesterase (O42275 whole entry): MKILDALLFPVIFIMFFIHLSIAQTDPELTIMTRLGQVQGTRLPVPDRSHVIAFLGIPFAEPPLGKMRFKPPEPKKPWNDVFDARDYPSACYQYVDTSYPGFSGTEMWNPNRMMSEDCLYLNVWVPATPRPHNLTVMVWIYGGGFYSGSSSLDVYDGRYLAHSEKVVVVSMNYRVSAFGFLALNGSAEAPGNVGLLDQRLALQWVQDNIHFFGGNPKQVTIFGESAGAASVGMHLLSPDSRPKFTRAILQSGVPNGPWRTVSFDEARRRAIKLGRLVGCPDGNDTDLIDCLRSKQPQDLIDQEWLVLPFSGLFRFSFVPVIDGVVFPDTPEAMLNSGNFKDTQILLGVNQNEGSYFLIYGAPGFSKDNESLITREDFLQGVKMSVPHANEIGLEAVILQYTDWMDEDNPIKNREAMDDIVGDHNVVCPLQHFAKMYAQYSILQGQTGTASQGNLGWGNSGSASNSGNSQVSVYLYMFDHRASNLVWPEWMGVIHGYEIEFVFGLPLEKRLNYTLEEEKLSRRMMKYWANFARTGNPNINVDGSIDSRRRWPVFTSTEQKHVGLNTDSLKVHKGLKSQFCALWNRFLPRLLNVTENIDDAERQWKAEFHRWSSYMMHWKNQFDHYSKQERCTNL

On to `CCN(CC)C(=O)Nc1ccc2[nH]ccc2c1`, for which the pIC50 in series [1] was less than 4.00; against Acetylcholinesterase, 5.71; on Cholinesterase it was 5.46; in series [2] it was less than 4.00.
Take `C#CCN(C)CCCOc1ccc(Cl)cc1Cl` [CLORGILINE]: the “inhibition (INH)” value in series [3] was “Tde”.
On to `CCN(CC)C(=O)Oc1ccc2[nH]ccc2c1`, for which the pIC50 in [1] is less than 4.00; against Acetylcholinesterase, 5.56; at Cholinesterase it was 5.64; in series [2] it was 4.88. The Ratio IC50 in the series filed under Homo sapiens was less than 0.13.
For `C#CCN[C@@H]1CCc2ccc(OC(=O)N(C)CC)cc21` [LADOSTIGIL], the pIC50 was 4.50 against Acetylcholinesterase, 5.70 on Cholinesterase and less than 4.00 in series [2]. In the series filed under Homo sapiens, the Ratio IC50 is greater than 2.69.
As for `C#CCn1ccc2ccc(OC(=O)N(CC)CC)cc21`, the pIC50 in series [1] was 5.74; against Acetylcholinesterase, 5.62; on Cholinesterase it was 5.30; in series [2] it was 4.29. In addition, the Stability entry in [4] and in [5] was “Unstable” each time. Further, in the series listed under Homo sapiens, the Ratio IC50 is 28.1.
As for `CCN(CC)C(=O)Nc1ccc2cc[nH]c2c1`, the pIC50 is less than 4.00 in series [1], 5.64 on Acetylcholinesterase, 5.34 on Cholinesterase and 4.69 in [2]. Besides, in the series with SH-SY5Y [6], the viability at 1 µM came out at 84.3%. Further, the outcome with SH-SY5Y [7] was Active. Further, the Ratio IC50 in the series listed under Homo sapiens is less than 0.2. In addition, in series [8], the CC50 at 48 h was greater than 100 µM. Also, the Activity entry with SH-SY5Y [9] is reported as “Dose-dependent effect”.
On to `CCN(CC)C(=O)Oc1ccc2cc[nH]c2c1`, for which the pIC50 in [1] is less than 4.00; at Acetylcholinesterase it was 5.43; on Cholinesterase it was 5.50; in [2], 4.05. In addition, in the series filed under Homo sapiens, the Ratio IC50 is less than 0.88.
For `C#CCn1ccc2cc(OC(=O)N(CC)CC)ccc21` the same measures were 4.78, 5.59, 5.52, 4.00 and 6.
With `C#CCn1ccc2ccc(NC(=O)N(CC)CC)cc21`, the “inhibition (INH)” value in series [3] is “Tde”. The pIC50 was 5.58 in series [1], 5.43 against Acetylcholinesterase, 5.55 on Cholinesterase and 5.37 in [2]. For the same molecule, the Stability entry in series [4] and in [5] was “Stable” throughout. Moreover, the viability at 1 µM in the series with SH-SY5Y [6] turned out to be 107%. The outcome with SH-SY5Y [7] was Active. Also, the Ratio IC50 in the series filed under Homo sapiens was determined as 1.65. Besides, the CC50 at 48 h in [8] was greater than 100 µM. In addition, the Activity result with SH-SY5Y [9] is on record as “Dose-dependent effect”.
Take `C#CCn1ccc2cc(NC(=O)N(CC)CC)ccc21`: the pIC50 in series [1] is 4.54; against Acetylcholinesterase, 5.56; at Cholinesterase, 5.40; in series [2] it was 4.48. In addition, the Ratio IC50 in the series filed under Homo sapiens worked out at 1.16.
